Counter-ions that a name gives are not always drawn.
Assays:
[1] = test system: Male Syrian hamsters known to develop insulin resistance and glucose intolerance; assay: Glucose tolerance test (GTT), similarly designed experiment with insulin as first phase insulin secretagogue; format: in vivo, Syrian hamster
Procedure: Male Syrian hamsters known to develop insulin resistance and glucose intolerance were purchased at 4 weeks of age and kept on rodent diet for 10 weeks at 72 degrees F. and a 14 hr:10 hr daily light:dark cycle. When animals were 14 weeks of age on this daily photoperiod (known to be insulin resistant and glucose intolerant under these conditions), bromocriptine mesylate was administered intraperitoneally (IP) for 2 weeks at 4 mg/kg per hamster 13 hours after light onset to half of the animals, while the other half received vehicle injections for 2 weeks.
After 2 weeks of treatment both Bromocriptine and vehicle groups were divided into two groups for a total of 4 groups: 1. Vehicle for 2 weeks and Vehicle at initiation of a glucose tolerance test (GTT); 2. […] Bromocriptine for 2 weeks and Vehicle at GTT; 4.
Blood was drawn from the jugular vein and blood glucose level was measured every 30 minutes for 2 hours after the glucose load administration.

[2] = test system: Male Syrian hamsters known to develop insulin resistance and glucose intolerance; assay: Glucose tolerance test (GTT) after 2 weeks of bromocriptine, with or without Exendin-4 at the GTT; format: in vivo, Syrian hamster; conditions: bromocriptine mesylate 4 mg/kg IP for 2 weeks, vehicle at GTT; 3 g/kg glucose; P<0.09

Row | Compound | reduction of glucose AUC over two hours after glucose administration ([1]; bromocriptine for 2 weeks, insulin experiment, P=0.23) | reduction of blood glucose Area Under Curve (AUC) during the GTT over two hours after glucose administration [2] | reduction of glucose AUC over two hours after glucose administration ([1]; insulin 240 ng/kg IP immediately prior to glucose administration, P=0.64)
1 | CC(C)C[C@H]1C(=O)N2CCC[C@H]2[C@]2(O)O[C@](NC(=O)[C@@H]3C=C4c5cccc6[nH]c(Br)c(c56)C[C@H]4N(C)C3)(C(C)C)C(=O)N12 [Bromocriptine, bromocriptine mesylate] | 28% | 21% | 
2 | insulin |  |  | not significantly reduced

Source: patent US9895422B2, “Combination of dopamine agonists plus first phase insulin secretagogues for the treatment of metabolic disorders” (VeroScience LLC, priority 2009, dated 2018)
